This note sets out measurements from PubChem BioAssay (NCI).

Assay in all cases: NCI anticancer screen, dose series, 48 h
Assay [1] has as its system UO-31 renal.
The test system of assay [2] is SNB-78 CNS.
For assay [3], the system named is OVCAR-3 ovarian.
Assay [4] concerns KM12 colon.
In assay [5] the test system is LXFL 529 NSCLC.
The subject of assay [6] is HCT-15 colon.
Assay [7] relates to M19-MEL melanoma.
For assay [8], the system named is COLO 205 colon.
For assay [9], the system named is DLD-1 colon.
In assay [10] the test system is MDA-MB-435.

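Cells were grown in 96-well plates and exposed to each compound for 48 hours at five concentrations; endpoints were interpolated linearly between bracketing concentrations, or set to the highest concentration if not reached. GI50 marks 50% less growth. Definition used: TGI = concentration required for complete inhibition of growth.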 Bounds are passed on as bounds.

For `Cc1cc2c(cc1C)[n+](=O)c(C(=O)CC(=O)C(=O)Nc1ccccc1C(C)C)c(C)n2[O-]`, the TGI in [1], in assay [2], in assay [3], in assay [4], in assay [5] and in [6] was > 100 µM throughout. Further, the TGI in assay [7] and in assay [8] was > 100 µM in each case.
For `O=C([O-])CCc1ccccc1.O=C([O-])CCc1ccccc1.O=C([O-])CCc1ccccc1.O=C([O-])CCc1ccccc1.[Mo+2].[Mo+2]`, the GI50 in assay [1], in assay [9], in [3], in assay [4], in assay [5] and in assay [6] was > 100 µM throughout. Besides, the GI50 in [7] and in assay [8] was > 100 µM each time. Further, the TGI in assay [1], in assay [9], in [3], in assay [4], in assay [5] and in [6] was > 100 µM in each case. Besides, the TGI in assay [7] and in assay [8] was > 100 µM each time.
With `O=C1C(=C([O-])c2ccccc2)C(=O)c2ccccc21.O=C1C(=C([O-])c2ccccc2)C(=O)c2ccccc21.[Co+2]`, the GI50 in assay [1] was > 100 µM; in [9] it was > 100 µM; in [3], 75.1 µM; in assay [4], > 100 µM; in assay [7] it was > 100 µM; in [8], 38.5 µM. Moreover, the TGI in assay [1], in [9], in assay [3], in [4], in [7] and in [8] was > 100 µM throughout.
On to `N#CC(/C(=N/NC(N)=S)C(=O)Nc1cccc(Cl)c1)c1ccccc1` (stereo not drawn), for which the TGI in assay [1], in assay [9], in [3], in [4], in assay [5] and in [6] was > 100 µM throughout. The TGI in assay [7] and in assay [8] was > 100 µM each time.
Regarding `O=C(c1cccs1)c1nc2cc(Cl)ccc2[n+]([O-])c1C(F)(F)F`, the GI50 in assay [10] is > 100 µM; in assay [1], > 100 µM; in assay [3], > 100 µM; in assay [4], 85.4 µM; in assay [6], > 100 µM; in assay [8], > 100 µM. Moreover, the TGI in [10], in [1], in assay [3], in assay [4], in assay [6] and in assay [8] was > 100 µM throughout.
As to `CCCCN(CC)CCCCCCCCCCN1CCCc2cc(OC)ccc21`, the GI50 in assay [10] was 2.41 µM; in [1], 2.08 µM; in [3], 3.35 µM; in assay [4] it was 2.31 µM; in [6], 3.3 µM; in [8], 1.6 µM. Also, the TGI in [10] was 7.06 µM; in [1], 11.3 µM; in assay [3], 11.3 µM; in [4] it was 5.14 µM; in [6], 13.6 µM; in assay [8], 3.25 µM.
Consider `CN(CSc1ccc(Cl)cc1)c1ccc(CSc2ccc(Cl)cc2)cc1`, for which the GI50 in [10] is 2.68 µM; in assay [1], 1.06 µM; in assay [3], 1.97 µM; in assay [4] it was 3.24 µM; in [6], 5.18 µM; in assay [8], 3.59 µM. Further, the TGI stood at 11.9 µM in assay [10]; 4.18 µM in [1]; 5.17 µM in assay [3]; 15.1 µM in assay [4]; 22.2 µM in assay [6]; 13.6 µM in assay [8].
`CCC(C)CC(C)C(=O)c1c(O)ccn(O)c1=O` (stereo not drawn): the GI50 in assay [10] was 1.87 µM; in [1], 0.376 µM; in [3], 0.415 µM; in assay [4], 3.37 µM; in [6], 0.46 µM; in assay [8], 38.3 µM. For the same compound, the TGI was > 100 µM in assay [10]; 4.31 µM in [1]; 45.3 µM in [3]; > 100 µM in assay [4]; > 100 µM in assay [6]; > 100 µM in assay [8].
For the compound `CCN1C(=O)N(CC)C2C1NC(=S)N2/N=C/C=C/c1ccccc1OC` (stereo not drawn), the GI50 in [10] was 0.0189 µM; in assay [1], 0.0879 µM; in assay [3], 0.0351 µM; in assay [4], 0.0406 µM; in [6] it was 0.0341 µM; in assay [8], 0.0315 µM. For the same compound, the TGI in assay [10] was 0.0539 µM; in assay [1] it was > 87.5 µM; in [3] it was 1.16 µM; in [4], > 100 µM; in [6], > 100 µM; in [8], 0.7 µM.
As to `N#C/C(=C\c1ccc(F)cc1)n1nc2cccc(F)c2n1`, the GI50 in [10] was 1.89 µM; in assay [1], 3.65 µM; in assay [3] it was 2.75 µM; in [4], 2.83 µM; in assay [6], 2.58 µM; in assay [8], 4.16 µM. Also, the TGI in assay [10] was 4.62 µM; in [1], > 100 µM; in [3], > 100 µM; in assay [4], > 100 µM; in assay [6], > 100 µM; in [8] it was > 100 µM.
As to `O=C(Nc1ccc(I)cc1)c1cccc([N+](=O)[O-])c1O`, the GI50 in [10] is 3.07 µM; in [1] it was 2.02 µM; in [3], 2.9 µM; in assay [4], 4.05 µM; in [6] it was 3.36 µM; in [8], 3.66 µM. Also, the TGI in assay [10] was > 100 µM; in [1], 8.49 µM; in assay [3], > 100 µM; in assay [4] it was > 100 µM; in [6], 40.9 µM; in assay [8] it was 34.6 µM.
